In patent US9340535B2, “N-[5-(Aminosulfony1)-4-methyl-1,3-thiazol-2-yl]-N-methyl-2-[4-(2-pyridinyl)phenyl]acetamide mesylate monohydrate” (AiCuris GmbH & Co. KG, priority 2011, dated 2016):
Where two headings read alike, the source gives them in different places.

Key:
[1] = Water solubility, solubility screening; conditions: water
Long term stability = format: physicochemical; conditions: in comparison to the free base form
[2] = Stability to decomposition: storage at 90° C. for one week
[3] = Crystallinity by X-ray diffraction, microscopy; format: physicochemical; conditions: X-ray diffraction, microscopy
[4] = Exposure in 26-week repeated dose toxicity study (mesylate monohydrate); format: in vivo; conditions: rats; for Cmax / AUC(0-t): rat, in vivo; for AUC(0-t): read-out: AUC(0-24); for Exposure ratio 26-wts/13-wts. AUC(0-24) / Exposure ratio 26-wts/13-wts. Cmax: day 1, mesylate monohydrate vs free base; for Exposure ratio 26-wts/13-wts AUC(0-24) / Exposure ratio 26-wts/13-wts Cmax: week 13, mesylate monohydrate vs free base
Method: The exposure of rats to N-[5-(aminosulfonyl)-4-methyl-1,3-thiazol-2-yl]-N-methyl-2-[4-(2-pyridinyl)phenyl]acetamide in a repeated dose 13-week toxicity study performed with the free base N-[5-(aminosulfonyl)-4-methyl-1,3-thiazol-2-yl]-N-methyl-2-[4-(2-pyridinyl)phenyl]acetamide (free base) was compared to the exposures observed in a 26-week repeated dose toxicity study performed with the mesylate monohydrate. In both studies, the test items were administered as 0.5% (w/v) tylose suspensions, and the concentrations were adjusted to the equivalents of free base N-[5-(aminosulfonyl)-4-methyl-1,3-thiazol-2-yl]-N-methyl-2-[4-(2-pyridinyl)phenyl]acetamide.

herpes simplex viruses = assay: Activity against herpes viruses; conditions: mainly herpes simplex viruses
[5] = Stability to dissociation: stirring for one week at room temperature
[6] = Thermal analysis and polymorphic stability (DSC, TGA); format: physicochemical
Method: Polymorphism refers to the ability of a solid material to exist in more than one crystal structure or solid form.
Upon mild heating (about 50° C. to 60° C.), the water content is reduced which would make these salts and the free base form extremely difficult to handle and to process during production and formulation. In contrast the hydrate of the mono mesylate salt is thermally stable and polymorphic stable at much higher temperatures of considerably above 100° C. as judged by TGA.
Moreover, exactly one mol equivalent water is incorporated into the crystal structure wherein the hydrogen atoms of the water molecule form hydrogen bridges with oxygen atoms of two different mesylate molecules. This well-defined position in the crystal lattice (see FIG. 3) is verified by the fact that water is released from the crystal only at high temperature, starting at 160° C.

[7] = Pharmacokinetics, single and multiple dose applications in healthy volunteers; format: in vivo, humans
Text: The plasma concentrations in humans exceeded those reached in in vivo and in vitro experiments sufficient to effectively treat herpes simplex virus infections in various animal models and to prevent viral replication in cell culture.

[8] = female, 10 mg/kg/day, F, 10 mg/kg/day, day 1, 26-week toxicity study
[9] = female, 50 mg/kg/day, F, 50 mg/kg/day, day 1, 26-week toxicity study
[10] = female, 250 mg/kg/day, F, 250 mg/kg/day, day 1, 26-week toxicity study
[11] = male, 10 mg/kg/day, M, 10 mg/kg/day, day 1, 26-week toxicity study
[12] = male, 50 mg/kg/day, M, 50 mg/kg/day, day 1, 26-week toxicity study
[13] = male, 250 mg/kg/day, M, 250 mg/kg/day, day 1, 26-week toxicity study
[14] = mesylate monohydrate vs free base, 50 and 250 mg/kg/day

With `CS(=O)(=O)O.Cc1nc(N(C)C(=O)Cc2ccc(-c3ccccn3)cc2)sc1S(N)(=O)=O.O` [Mesylate monohydrate, N-[5-(aminosulfonyl)-4-methyl-1,3-thiazol-2-yl]-N-methyl-2-[4-(2-pyridinyl)-phenyl]acetamide methanesulfonate monohydrate] the solubility [1] was 1380 µg/mL, the Long term stability (Long term stability) was “superior” and the Stability to decomposition [2] was “++”. For the same molecule, the Crystallinity [3] was “+”, the Cmax [4, 8] was 17.2 µg/mL and the AUC(0-t) [4, 8] was 175 µg·h/mL. It also gave an AUC(0-t) ([4]; female, 10 mg/kg/day, F, 10 mg/kg/day, week 13, 26-week toxicity study) of 321 µg·h/mL, a Cmax ([4]; female, 10 mg/kg/day, F, week 13, 26-week toxicity study) of 26 µg/mL and a Cmax [4, 9] of 77.8 µg/mL. For the same molecule, the AUC(0-t) [4, 9] was 913 µg·h/mL, the AUC(0-t) ([4]; female, 50 mg/kg/day, F, 50 mg/kg/day, week 13, 26-week toxicity study) was 1210 µg·h/mL and the Cmax ([4]; female, 50 mg/kg/day, F, week 13, 26-week toxicity study) was 106 µg/mL. The Cmax [4, 10] was 146 µg/mL, the AUC(0-t) [4, 10] was 2470 µg·h/mL and the AUC(0-t) ([4]; female, 250 mg/kg/day, F, 250 mg/kg/day, week 13, 26-week toxicity study) was 3580 µg·h/mL. It also gave a Cmax ([4]; female, 250 mg/kg/day, F, week 13, 26-week toxicity study) of 217 µg/mL, a Cmax [4, 11] of 16.9 µg/mL and an AUC(0-t) [4, 11] of 119 µg·h/mL. The AUC(0-t) ([4]; male, 10 mg/kg/day, M, 10 mg/kg/day, week 13, 26-week toxicity study) was 227 µg·h/mL, the Cmax ([4]; male, 10 mg/kg/day, M, week 13, 26-week toxicity study) was 21.8 µg/mL and the Cmax [4, 12] was 70.3 µg/mL. The AUC(0-t) [4, 12] was 634 µg·h/mL, the AUC(0-t) ([4]; male, 50 mg/kg/day, M, 50 mg/kg/day, week 13, 26-week toxicity study) was 959 µg·h/mL and the Cmax ([4]; male, 50 mg/kg/day, M, week 13, 26-week toxicity study) was 74.7 µg/mL. For the same molecule, the Cmax [4, 13] was 134 µg/mL, the AUC(0-t) [4, 13] was 1980 µg·h/mL and the AUC(0-t) ([4]; male, 250 mg/kg/day, M, 250 mg/kg/day, week 13, 26-week toxicity study) was 2780 µg·h/mL. The Cmax ([4]; male, 250 mg/kg/day, M, week 13, 26-week toxicity study) was 169 µg/mL, the “Exposure ratio 26-wts/13-wts. AUC(0-24)” value ([4]; F, 10 mg/kg/day) was 1.1 and the “Exposure ratio 26-wts/13-wts. Cmax” value ([4]; F, 10 mg/kg/day) was 1.1. For the same molecule, the “Exposure ratio 26-wts/13-wts AUC(0-24)” value ([4]; F, 10 mg/kg/day) was 1.5, the “Exposure ratio 26-wts/13-wts Cmax” value ([4]; F, 10 mg/kg/day) was 1.0 and the “Exposure ratio 26-wts/13-wts. AUC(0-24)” value ([4]; F, 50 mg/kg/day) was 2.2. For the same molecule, the “Exposure ratio 26-wts/13-wts. Cmax” value ([4]; F, 50 mg/kg/day) was 2.2, the “Exposure ratio 26-wts/13-wts AUC(0-24)” value ([4]; F, 50 mg/kg/day) was 2.6 and the “Exposure ratio 26-wts/13-wts Cmax” value ([4]; F, 50 mg/kg/day) was 2.6. The “Exposure ratio 26-wts/13-wts. AUC(0-24)” value ([4]; F, 250 mg/kg/day) was 2.6, the “Exposure ratio 26-wts/13-wts. Cmax” value ([4]; F, 250 mg/kg/day) was 2.1 and the “Exposure ratio 26-wts/13-wts AUC(0-24)” value ([4]; F, 250 mg/kg/day) was 3.1. For the same molecule, the “Exposure ratio 26-wts/13-wts Cmax” value ([4]; F, 250 mg/kg/day) was 2.6, the “Exposure ratio 26-wts/13-wts. AUC(0-24)” value ([4]; M, 10 mg/kg/day) was 1.4 and the “Exposure ratio 26-wts/13-wts. Cmax” value ([4]; M, 10 mg/kg/day) was 1.3. For the same molecule, the “Exposure ratio 26-wts/13-wts AUC(0-24)” value ([4]; M, 10 mg/kg/day) was 1.7, the “Exposure ratio 26-wts/13-wts Cmax” value ([4]; M, 10 mg/kg/day) was 1.5 and the “Exposure ratio 26-wts/13-wts. AUC(0-24)” value ([4]; M, 50 mg/kg/day) was 2.6. The “Exposure ratio 26-wts/13-wts. Cmax” value ([4]; M, 50 mg/kg/day) was 2.3, the “Exposure ratio 26-wts/13-wts AUC(0-24)” value ([4]; M, 50 mg/kg/day) was 2.9 and the “Exposure ratio 26-wts/13-wts Cmax” value ([4]; M, 50 mg/kg/day) was 2.5. The “Exposure ratio 26-wts/13-wts. AUC(0-24)” value ([4]; M, 250 mg/kg/day) was 3.5, the “Exposure ratio 26-wts/13-wts. Cmax” value ([4]; M, 250 mg/kg/day) was 2.5 and the “Exposure ratio 26-wts/13-wts AUC(0-24)” value ([4]; M, 250 mg/kg/day) was 4.2. The “Exposure ratio 26-wts/13-wts Cmax” value ([4]; M, 250 mg/kg/day) was 2.7, the “Increase in extent of exposure, AUC” value [4, 14] was ≤ 4 fold and the “Increase in extent of exposure, Cmax” value [4, 14] was “up to 2.7 fold”. The “Activity against herpes viruses” value (herpes simplex viruses) was “highly active”, the Stability to dissociation [5] was “++” and the “Thermal stability of hydrate” value [6] was “stable”. The DSC ([6]; Differential Scanning Calorimetry) was “loss of water before melting”, the TGA ([6]; Thermogravimetric Analysis) was 4.3% and the “Temperature at which the hydrate is thermally and polymorphic stable” value ([6]; as judged by TGA) was “above 100 °C”. The “Temperature at which water is released from the crystal” value ([6]; starting temperature) was ≥ 160 °C and the Plasma half lives [7] was “long lasting half lives”.
